“Also recorded” adds a separate entry of the source. Where two headings read alike, the source gives them in different places.
How the values were obtained:
[1] = Plasma pharmacokinetics after single oral dose, phase I; data geometric mean (coefficient of variation), t max median (range); type: in vivo, healthy men; conditions: for AUC(0-inf) / AUC(0-t) / Cmax / Tmax / Vd/F / half-life: male, human, plasma; for Tmax: median (range); for Vd/F: read-out: Vz/F
Protocol: Participants fasted overnight for at least 10 hours before dosing. […] Participants resided at the study centre until 48 hours postdose and attended a follow‐up visit 7–10 days after dosing.
This dose was selected by the Safety Review Committee based on all available data for one or more higher doses in part A. Participants once again resided at the study centre until 48 hours postdose and attended a follow‐up visit 7–10 days after dosing.
Blood samples were collected only up to 48 hours after dosing for the first cohort; the sampling schedule was amended thereafter to include the later time points. Samples for determination of AZD4831 in plasma were analysed by Covance Laboratories Ltd. (Harrogate, UK). […] This method was validated prior to sample analysis in the range 2–2000 nmol L^−1 in plasma, using a 25 μL sample aliquot.

xanthine oxidase = tested on: xanthine oxidase; design: method as in E Michaëlsson et al., manuscript in preparation; conditions: in vitro; ref E Michaëlsson et al., manuscript in preparation; cited from earlier work
[2] = 45 mg after high-fat, high-calorie meal vs fasting

With C[C@@H](N)c1cc(Cl)ccc1Cn1c(=S)[nH]c(=O)c2[nH]ccc21 [AZD4831] the “delay of t max by food” value [1, 2] was 2.5 h, the “reduction of Cmax by food” value [1, 2] was 44% and the “effect of food on AUC0–∞” value ([1]; 45 mg fed vs fasted) was “slightly reduced”. For the same compound, the “effect of food on t 1/2λz” value ([1]; 45 mg fed vs fasted) was “slightly increased”, the AUC(0-inf) ([1]; oral, 5 mg, 5 mg fasted) was 0.514 µM·h and the AUC(0-t) ([1]; oral, 5 mg, 5 mg fasted) was 0.294 µM·h. It also gave a Cmax ([1]; oral, 5 mg, 5 mg fasted) of 15 nM, a Tmax ([1]; oral, 5 mg, 5 mg fasted) of 1 h and a Vd/F ([1]; oral, 5 mg, 5 mg fasted, n = 4) of 1580 L. For the same compound, the half-life ([1]; oral, 5 mg, 5 mg fasted, n = 4, read-out: t 1/2λz (converted)) was 37.6 h, the AUC(0-inf) ([1]; oral, 15 mg, 15 mg fasted) was 1.67 µM·h and the AUC(0-t) ([1]; oral, 15 mg, 15 mg fasted) was 1.44 µM·h. For the same compound, the Cmax ([1]; oral, 15 mg, 15 mg fasted) was 83.4 nM, the Tmax ([1]; oral, 15 mg, 15 mg fasted) was 0.74 h and the Vd/F ([1]; oral, 15 mg, 15 mg fasted) was 1750 L. For the same compound, the half-life ([1]; oral, 15 mg, 15 mg fasted, read-out: t 1/2λz (converted)) was 45.2 h, the AUC(0-inf) ([1]; oral, 45 mg, 45 mg fasted) was 6.69 µM·h and the AUC(0-t) ([1]; oral, 45 mg, 45 mg fasted) was 6.13 µM·h. It also gave a Cmax ([1]; oral, 45 mg, 45 mg fasted) of 326 nM, a Tmax ([1]; oral, 45 mg, 45 mg fasted) of 0.51 h and a Vd/F ([1]; oral, 45 mg, 45 mg fasted) of 1450 L. The half-life ([1]; oral, 45 mg, 45 mg fasted, read-out: t 1/2λz (converted)) was 49.9 h, the AUC(0-inf) ([1]; oral, 45 mg, 45 mg fed) was 5.79 µM·h and the AUC(0-t) ([1]; oral, 45 mg, 45 mg fed) was 5.37 µM·h. The Cmax ([1]; oral, 45 mg, 45 mg fed) was 184 nM, the Tmax ([1]; oral, 45 mg, 45 mg fed) was 3 h and the Vd/F ([1]; oral, 45 mg, 45 mg fed) was 1940 L. For the same compound, the half-life ([1]; oral, 45 mg, 45 mg fed, read-out: t 1/2λz (converted)) was 58 h, the Cmax ([1]; oral, 135 mg, 135 mg fasted) was 1090 nM and the Tmax ([1]; oral, 135 mg, 135 mg fasted) was 0.74 h. It also gave a Vd/F ([1]; oral, 135 mg, 135 mg fasted) of 1450 L, a half-life ([1]; oral, 135 mg, 135 mg fasted, read-out: t 1/2λz (converted)) of 48.4 h and a Cmax ([1]; oral, 405 mg, 405 mg fasted) of 3040 nM. It also gave a Tmax ([1]; oral, 405 mg, 405 mg fasted) of 0.75 h, a Vd/F ([1]; oral, 405 mg, 405 mg fasted) of 1270 L and a half-life ([1]; oral, 405 mg, 405 mg fasted, read-out: t 1/2λz (converted)) of 38.1 h. The half-life ([1]; po, single oral doses 5–405 mg fasted, range across doses, read-out: plasma half-life (t 1/2λz estimates)) was 38.2 to 50 h and the “inhibition of xanthine oxidase” value (xanthine oxidase) was “does not inhibit; also recorded: is not a substrate or an inhibitor”.

— paper PMC6422671 (British Journal of Clinical Pharmacology, 2019)
